Measurements from patent publication US8728797B2, “Yeast membrane protein expression system and its application in drug screening” (priority 2001, dated 2014).

Key:
AD-PDR5 (Pdr5p) = assay: Disk diffusion assay, AD-PDR5; format: cell-based, S. cerevisiae; conditions: AD-pABC as negative control, 30° C., 48 h
Procedure: (§1) The cells were spread on CSM-agar plates and exposed to the drugs or chemicals applied to filter disks and incubated at 30° C. for 48 h. The amounts of individual drugs are given in the Materials and Methods section of Example 3. Rhodamine 6G and rhodamine 123 were dissolved in ethanol and the other antifungals were dissolved in DMSO.
(§2) Drug susceptibility was measured using disk assays on CSM-URA plates (containing 1.5% w/v agar). Yeast cells (200 μl ml of 5×10^6 cells/ml) were spread on the plates. 10 μl of drug solution or solvent control were spotted onto sterile Whatman paper disks on the pre-spread plates. The following amounts (nmoles) of drugs were applied to individual disks: fluconazole, 633 (Pfizer Ltd., Sandwich, Kent, United Kingdom); itraconazole, 0.23 (Janssen); miconazole, 0.42 (Janssen); cycloheximide, 0.71 (Sigma); rhodamine 6G, 100 (Sigma, Penrose, Auckland, N. Z.); rhodamine 123, 125 (Sigma); cerulenin 4.5 (Sigma); 5-flucytosine 100 (Sigma); amphotericin B, 97 (E. R. Squibb & Sons, Princeton, N.J.); nystatin 65 (Sigma). Agar plates were incubated at 30° C. for 48 h or until clear growth inhibition zones were visible.

[1] = tested on: S. cerevisiae AD1002 (CDR1+); assay: Disk drug susceptibility assay, AD1002 compared with parental strain; format: cell-based; conditions: drug on filter disks, 30° C., 48 h
Procedure: (§3) S. cerevisiae AD1-8u^− (CDR1−) or AD1002 (CDR1+) cells (5×10^5) seeded in top agar on CSM agar plates (containing uracil for AD1-8u^−) were exposed to drugs or chemicals applied to filter disks and incubated at 30° C. for 48 h. The sensitivity of AD1002 to drugs or chemicals was unaffected by supplementing the medium with uridine (0.02% w/v). Amounts of individual drugs applied to disks are given in the Materials and methods section of Example 2, below.
(§4) Drug susceptibility was measured using disk assays on CSM-URA plates (containing 1.5% w/v agar). Plates were seeded with yeast cells suspended in top agar (5 ml, 10^5 cells/ml). For the uracil-dependent parental strain, agar was supplemented with 0.02% uridine. Five microliters of drug solution or solvent control were spotted onto sterile Whatman paper disks on the top agar. The following amounts (nmoles) of drugs were applied to individual disks: fluconazole, 6.5 (Pfizer Ltd., Sandwich, Kent, United Kingdom); ketoconazole, 0.094 (Janssen Research Foundation, Beerse, Belgium); itraconazole, 0.35 (Janssen); miconazole, 0.084 (Janssen); amphotericin B, 54 (E. R. Squibb & Sons, Princeton, N.J.); rhodamine 6G, 10 (Sigma, Penrose, Auckland, N. Z.); rhodamine 123, 50 (Sigma); trifluoperazine 100 (Sigma); benomyl, 10 (Nippon Roche); cycloheximide, 5 (Sigma); carbonyl cyanide p-chlorophenylhydrazone, 490 (CCCP, Sigma); oligomycin, 10 (Sigma); nigericin, 100 (Sigma); tamoxifen, 25 (Sigma); naftifine, 50 (Novartis); quinidine, 500 (Sigma); valinomycin, 20 (Sigma); verapamil, 1000 (Sigma). Agar plates were incubated at 30° C. for 48 h or until clear growth inhibition zones were visible.

AD-CDR1 (Cdr1p) = assay: Disk diffusion assay, AD-CDR1; format: cell-based, S. cerevisiae; conditions: AD-pABC as negative control, 30° C., 48 h
Procedure: as §1, §2

Cdr1p ATPase = target: T1, Cdr1p ATPase (Candida albicans, UniProt P43071, E1416A/I916V/K1177E/L1021S/Q214E/T842S/Y427F); assay: Oligomycin sensitive ATPase/NTPase activity of AD1002 plasma membranes; format: biochemical, C. albicans
T1 construct: expressed in transfected cells; host or cells: S. cerevisiae AD1-8u- with pKEN1002 integrated at the PDR5 locus (strain AD1002), plasma membrane fraction
T1 sequence (P43071 whole entry Q214E/Y427F/T842S/I916V/L1021S/K1177E/E1416A): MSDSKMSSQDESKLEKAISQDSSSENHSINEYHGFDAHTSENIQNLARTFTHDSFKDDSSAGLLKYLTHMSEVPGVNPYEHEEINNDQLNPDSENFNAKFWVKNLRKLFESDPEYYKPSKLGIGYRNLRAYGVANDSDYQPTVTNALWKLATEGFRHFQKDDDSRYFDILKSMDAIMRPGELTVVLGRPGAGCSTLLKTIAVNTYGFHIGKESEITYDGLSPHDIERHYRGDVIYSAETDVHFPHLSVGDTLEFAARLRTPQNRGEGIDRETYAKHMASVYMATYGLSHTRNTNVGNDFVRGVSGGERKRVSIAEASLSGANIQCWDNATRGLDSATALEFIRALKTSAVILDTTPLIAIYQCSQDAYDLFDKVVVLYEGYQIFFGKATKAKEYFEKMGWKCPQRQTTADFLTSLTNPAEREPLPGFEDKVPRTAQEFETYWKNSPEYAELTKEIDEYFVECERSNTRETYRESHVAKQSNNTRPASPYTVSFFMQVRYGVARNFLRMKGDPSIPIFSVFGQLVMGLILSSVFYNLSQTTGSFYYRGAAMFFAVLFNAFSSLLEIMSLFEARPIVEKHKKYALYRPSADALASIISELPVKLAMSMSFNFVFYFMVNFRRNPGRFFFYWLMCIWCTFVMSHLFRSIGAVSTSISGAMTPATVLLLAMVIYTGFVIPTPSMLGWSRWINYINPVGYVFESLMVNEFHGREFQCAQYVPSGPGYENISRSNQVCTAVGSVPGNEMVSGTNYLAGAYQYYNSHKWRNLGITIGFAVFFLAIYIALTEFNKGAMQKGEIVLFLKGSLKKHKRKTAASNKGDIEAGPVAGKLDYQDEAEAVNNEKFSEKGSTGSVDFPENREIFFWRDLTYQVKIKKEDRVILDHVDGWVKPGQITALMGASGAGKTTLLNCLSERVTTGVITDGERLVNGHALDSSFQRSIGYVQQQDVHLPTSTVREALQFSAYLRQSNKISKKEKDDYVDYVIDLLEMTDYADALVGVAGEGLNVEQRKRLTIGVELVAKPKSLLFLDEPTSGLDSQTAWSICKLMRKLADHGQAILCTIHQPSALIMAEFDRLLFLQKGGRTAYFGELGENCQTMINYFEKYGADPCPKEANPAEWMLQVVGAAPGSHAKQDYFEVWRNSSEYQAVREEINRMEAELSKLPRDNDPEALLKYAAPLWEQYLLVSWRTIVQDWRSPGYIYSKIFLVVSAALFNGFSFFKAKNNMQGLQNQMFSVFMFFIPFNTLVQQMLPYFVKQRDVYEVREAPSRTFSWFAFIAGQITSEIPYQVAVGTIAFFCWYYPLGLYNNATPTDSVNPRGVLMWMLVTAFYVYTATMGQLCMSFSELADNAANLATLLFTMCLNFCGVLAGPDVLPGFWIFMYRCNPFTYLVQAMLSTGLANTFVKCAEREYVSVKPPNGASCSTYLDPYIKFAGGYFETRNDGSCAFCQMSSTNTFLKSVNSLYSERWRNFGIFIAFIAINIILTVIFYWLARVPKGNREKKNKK
Procedure: Membrane fractions were isolated from S. cerevisiae AD1002 (▪) or parental AD1-8u^− cells (●). ATPase assays were carried out at 30° C. for 30 min, as described in Materials and methods for Example 2. The oligomycin-sensitive activity was determined as the difference in ATPase activity in the presence and absence of 20 μM oligomycin. […] The results are the means (+/−SD) of four determinations carried out on two membrane preparations.
(B) Inhibition profile with KN20 on the oligomycin-sensitive Cdr1p ATPase activity of plasma membranes from AD1002 minus the oligomycin-sensitive ATPase activity of plasma membranes from the isogenic AD1-8u^− strain.
Yeast were grown in YEPD, pH 5.5 at 30° C. until they reached late-exponential phase of growth (OD600 nm=7), washed twice in ice-cold distilled water, and incubated on ice for 30 min to minimize glucose-stimulated Pma1p activity. Cells were resuspended in homogenising medium (50 mM Tris pH 7.5, 2 mM EDTA and 1 mM phenylmethylsulfonyl fluoride) and disrupted using a Braun Homogeniser. Cell debris and unbroken cells were removed by centrifuging at 2,000×g at 4° C. for 10 min. A crude membrane fraction was isolated from the cell-free supernatant by centrifuging at 30,000×g at 4° C. for 45 min. Plasma membranes were prepared by centrifugation of the supernatant obtained after selective precipitation of mitochondria at pH 5.2 as described previously (Goffeau, A. and Dufour, J. P., 1988). The plasma membranes were resuspended in 10 mM Tris pH 7.0, 0.5 mM EDTA and 20% [v/v] glycerol and stored at −80° C. Protein was determined using a micro-Bradford (Bio-Rad Laboratories, Hercules, Calif. [Bradford, M. M., 1976]) assay with gamma-globulin as standard. Nucleotide triphosphatase activity was measured by incubating the plasma membrane fractions (10 μg) at 30° C. in a final volume of 120 μl containing 6 mM NTP, 7 mM MgSO4 in 59 mM MES-Tris buffer pH 6.0-8.0. To eliminate possible contributions from nonspecific phosphatases, vacuolar, or mitochondrial ATPases, 0.2 mM ammonium molybdate, 50 mM KNO3 and 10 mM NaN3, respectively, were included in assays (Monk B C, et al, 1991). Other ATPase inhibitors (20 μM oligomycin, 20 μM aurovertin B or 100 μM vanadate were added to the reaction where indicated. After 30 min the reaction was stopped by adding 130 μl of a solution containing 1% (w/v) SDS, 0.6 M H2SO4, 1.2% (w/v) ammonium molybdate and 1.6% (w/v) ascorbic acid. Inorganic phosphate released from NTPs was measured at 750 nm after 10 min incubation at room temperature.

[2] = tested on: S. cerevisiae AD1-8u^− (CDR1−); assay: Disk drug susceptibility assay, parental strain; format: cell-based; conditions: at the concentrations used; 30° C., 48 h
Procedure: as §3, §4

AD-BEN^R (Ben^Rp) = assay: Disk diffusion assay, AD-BEN^R; format: cell-based, S. cerevisiae; conditions: AD-pABC as negative control, 30° C., 48 h
Procedure: as §1, §2

AD-ERG11 (Erg11p) = assay: Disk diffusion assay, AD-ERG11; format: cell-based, S. cerevisiae; conditions: AD-pABC as negative control, 30° C., 48 h
Procedure: as §1, §2

Row | Molecule | resistance/sensitivity in disk diffusion assay (AD-PDR5 (Pdr5p)) | resistance/sensitivity in disk diffusion assay (AD-CDR1 (Cdr1p)) | resistance/sensitivity in disk diffusion assay (AD-BEN^R (Ben^Rp)) | resistance/sensitivity in disk diffusion assay (AD-ERG11 (Erg11p)) | resistance of AD1002 relative to parental strain in disk assay [1] | other results
1 | C[C@@H]1[C@H](O)[C@@H](C)/C=C/C=C/C=C/C=C/C=C/C=C/C=C/[C@H](O[C@@H]2O[C@H](C)[C@@H](O)[C@H](N)[C@@H]2O)C[C@@H]2O[C@](O)(C[C@@H](O)C[C@@H](O)[C@H](O)CC[C@@H](O)C[C@@H](O)CC(=O)O[C@H]1C)C[C@H](O)[C@H]2C(=O)O [amphotericin B] | sensitivities | sensitivities | – | – | – | resistance of AD1002 relative to parental strain in disk assay ([1]; listed as Amphotericin B): toxicity in yeast was not modified
2 | CC[C@H]1O[C@]2(C)[C@H](OC(C)=O)[C@@]1(C)O[C@@H](/C=C/C=C/C=C/c1oc(=O)cc(OC)c1C)[C@@H]2O [aurovertin B] | – | – | – | – | – | sensitivity of AD1002 ATPase/NTPase activity to inhibitor (Cdr1p ATPase; aurovertin B 20 μM): insensitive
3 | CCCCNC(=O)n1c(NC(=O)OC)nc2ccccc21 [benomyl] | – | – | – | – | – | sensitivity of parental strain AD1-8u^− in disk assay [2]: resistant
4 | C/C=C/C/C=C/CCC(=O)[C@H]1O[C@H]1C(N)=O [cerulenin] | – | – | resistant | susceptible | – | –
5 | C[C@@H]1C[C@@H]([C@H](O)CC2CC(=O)NC(=O)C2)C(=O)[C@@H](C)C1 [cycloheximide] | resistances | resistances | resistant | susceptible | confers resistance to growth inhibition | –
6 | Nc1[nH]c(=O)ncc1F [flucytosine] | sensitivities | sensitivities | sensitive | susceptible | – | –
7 | Clc1ccc(COC(Cn2ccnc2)c2ccc(Cl)cc2Cl)c(Cl)c1 (centres unmarked) [miconazole] | resistances | resistances | detectable resistance | some resistance | – | –
8 | CN(C/C=C/c1ccccc1)Cc1cccc2ccccc12 [naftifine] | – | – | – | – | cross-resistance | –
9 | CO[C@@H]1C[C@@H](C[C@H]2CC[C@H](C)[C@H]([C@@H](C)C(=O)O)O2)O[C@]2(O[C@](C)([C@H]3CC[C@@](C)([C@@H]4O[C@@H]([C@H]5O[C@@](O)(CO)[C@H](C)C[C@@H]5C)C[C@@H]4C)O3)C[C@H]2C)[C@@H]1C [nigericin] | – | – | – | – | confers resistance to growth inhibition | –
10 | C[C@@H]1[C@H](O)[C@@H](C)/C=C/C=C/CC/C=C/C=C/C=C/C=C/C(O[C@H]2O[C@H](C)[C@@H](O)[C@H](N)[C@@H]2O)CC2O[C@](O)(CC(O)C(O)CCC(O)CC(O)CC(O)CC(=O)O[C@H]1C)CC(O)C2C(=O)O (some centres unmarked) [nystatin] | sensitivities | sensitivities | – | – | – | –
11 | CC[C@H]1/C=C/C=C/C[C@@H](C)[C@H](O)[C@@](C)(O)C(=O)[C@@H](C)[C@H](O)[C@@H](C)C(=O)[C@@H](C)[C@H](O)[C@@H](C)/C=C/C(=O)O[C@@H]2[C@H](C)[C@H](CC1)O[C@]1(CC[C@H](C)[C@H](C[C@@H](C)O)O1)[C@H]2C [oligomycin] | – | – | – | – | – | sensitivity of parental strain AD1-8u^− in disk assay [2]: resistant
12 | C=C[C@H]1C[N@@]2CC[C@H]1C[C@@H]2[C@@H](O)c1ccnc2ccc(OC)cc12 [quinidine] | – | – | – | – | – | sensitivity of parental strain AD1-8u^− in disk assay [2]: resistant
13 | CC/C(=C(\c1ccccc1)c1ccc(OCCN(C)C)cc1)c1ccccc1 [tamoxifen] | – | – | – | – | confers resistance to growth inhibition | –
14 | CN1CCN(CCCN2c3ccccc3Sc3ccc(C(F)(F)F)cc32)CC1 [trifluoperazine] | – | – | – | – | confers resistance to growth inhibition | –
15 | CC(C)[C@@H]1NC(=O)[C@H](C)OC(=O)[C@@H](C(C)C)NC(=O)[C@@H](C(C)C)OC(=O)[C@H](C(C)C)NC(=O)[C@H](C)OC(=O)[C@@H](C(C)C)NC(=O)[C@@H](C(C)C)OC(=O)[C@H](C(C)C)NC(=O)[C@H](C)OC(=O)[C@@H](C(C)C)NC(=O)[C@@H](C(C)C)OC1=O [valinomycin] | – | – | – | – | – | sensitivity of parental strain AD1-8u^− in disk assay [2]: resistant
16 | [O]=[V]([O-])([O-])[O-] [vanadate] | – | – | – | – | – | sensitivity of AD1002 ATPase/NTPase activity to inhibitor (Cdr1p ATPase; vanadate 100 μM): completely sensitive
17 | COc1ccc(CCN(C)CCCC(C#N)(c2ccc(OC)c(OC)c2)C(C)C)cc1OC (centres unmarked) [verapamil] | – | – | – | – | confers resistance to growth inhibition | –
18 | rhodamine 6G | resistances | resistances | fully sensitive | susceptible | clear resistance | –
19 | rhodamine 123 | resistances | resistances | fully sensitive | susceptible | clear resistance | –
